Reference: US8148391B2 (Cephalon, Inc., priority 2006, dated 2012)

How the values were obtained:
[1] = target: T1, c-Met (cytoplasmic domain) (Homo sapiens, UniProt P08581); test: c-Met Kinase Assay (same methods as for ALK, with modifications); assay type: biochemical; conditions: 1 μM ATP (Km level); read-out: cMet Activity (c-Met Kinase Inhibition, IC50)
T1 construct: 10 ng/mL c-Met (cytoplasmic domain, Invitrogen Corporation #PV3143); purchased Invitrogen Corporation PV3143
Method in brief: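 This plate-based kinase format uses immobilized phospholipase C-γ as substrate, phosphorylated by c-Met cytoplasmic domain (10 ng/mL) at 37° C for 15 minutes.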

[2] = target: T2, baculovirus-expressed ALK (Homo sapiens, UniProt Q9UM73); test: ALK Kinase Assay (ELISA-type, time-resolved fluorescence); assay type: biochemical; conditions: 1 μM ATP (Km level); read-out: ALK Activity (ALK Kinase Inhibition, IC50)
T2 construct: host or cells: baculovirus expression system
T2 sequence (Q9UM73 19-1620): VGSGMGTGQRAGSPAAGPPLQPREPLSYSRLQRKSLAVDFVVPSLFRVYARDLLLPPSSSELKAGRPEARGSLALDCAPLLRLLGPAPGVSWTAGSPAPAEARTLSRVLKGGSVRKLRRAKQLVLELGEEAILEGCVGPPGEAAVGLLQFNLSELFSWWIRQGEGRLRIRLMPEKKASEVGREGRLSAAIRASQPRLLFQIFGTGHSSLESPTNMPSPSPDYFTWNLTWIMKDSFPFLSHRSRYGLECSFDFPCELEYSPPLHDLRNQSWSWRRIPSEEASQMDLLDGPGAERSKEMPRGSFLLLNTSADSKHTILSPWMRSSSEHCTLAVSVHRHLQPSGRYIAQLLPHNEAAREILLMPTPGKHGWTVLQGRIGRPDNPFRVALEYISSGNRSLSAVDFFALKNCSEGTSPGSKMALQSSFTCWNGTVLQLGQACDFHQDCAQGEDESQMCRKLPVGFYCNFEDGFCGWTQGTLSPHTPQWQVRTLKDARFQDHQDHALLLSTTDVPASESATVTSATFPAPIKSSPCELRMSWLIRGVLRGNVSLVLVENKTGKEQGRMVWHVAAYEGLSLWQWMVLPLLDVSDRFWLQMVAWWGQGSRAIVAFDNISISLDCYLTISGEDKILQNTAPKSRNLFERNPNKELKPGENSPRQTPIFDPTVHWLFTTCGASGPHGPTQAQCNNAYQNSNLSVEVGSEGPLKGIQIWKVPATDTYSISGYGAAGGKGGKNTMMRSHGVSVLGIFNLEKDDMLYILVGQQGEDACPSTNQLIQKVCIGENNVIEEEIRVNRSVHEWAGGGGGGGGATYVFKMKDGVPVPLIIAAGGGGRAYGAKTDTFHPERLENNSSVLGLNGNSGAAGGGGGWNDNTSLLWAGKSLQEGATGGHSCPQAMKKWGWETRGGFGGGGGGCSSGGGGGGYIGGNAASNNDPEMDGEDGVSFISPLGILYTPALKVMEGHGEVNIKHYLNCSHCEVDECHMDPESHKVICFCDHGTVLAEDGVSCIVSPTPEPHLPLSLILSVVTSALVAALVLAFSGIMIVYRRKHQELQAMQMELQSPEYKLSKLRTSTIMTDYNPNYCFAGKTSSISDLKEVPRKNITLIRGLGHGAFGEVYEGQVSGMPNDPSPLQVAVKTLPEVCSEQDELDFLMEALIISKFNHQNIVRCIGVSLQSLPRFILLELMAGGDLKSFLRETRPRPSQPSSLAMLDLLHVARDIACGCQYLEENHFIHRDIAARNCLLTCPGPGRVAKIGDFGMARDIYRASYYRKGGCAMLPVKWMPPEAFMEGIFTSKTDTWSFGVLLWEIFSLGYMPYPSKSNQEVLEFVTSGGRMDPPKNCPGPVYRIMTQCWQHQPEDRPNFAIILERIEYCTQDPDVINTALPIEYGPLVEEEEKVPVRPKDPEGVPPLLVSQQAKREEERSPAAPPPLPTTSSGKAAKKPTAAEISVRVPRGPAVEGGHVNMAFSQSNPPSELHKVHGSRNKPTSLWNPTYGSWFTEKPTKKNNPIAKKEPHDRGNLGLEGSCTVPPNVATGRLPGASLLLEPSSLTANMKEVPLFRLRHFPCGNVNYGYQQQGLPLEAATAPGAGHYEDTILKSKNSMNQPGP
Method in brief: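 Substrate coating: phospholipase C-γ, 10 μg/mL in TBS. Kinase step: 30 ng/ml ALK, 15 min, 37° C. Detection and analysis: Eu-N1 PT66 antibody, with IC50 fitted as a sigmoidal variable-slope dose-response curve.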

T1 sequence (P08581 956-1390 limits assumed): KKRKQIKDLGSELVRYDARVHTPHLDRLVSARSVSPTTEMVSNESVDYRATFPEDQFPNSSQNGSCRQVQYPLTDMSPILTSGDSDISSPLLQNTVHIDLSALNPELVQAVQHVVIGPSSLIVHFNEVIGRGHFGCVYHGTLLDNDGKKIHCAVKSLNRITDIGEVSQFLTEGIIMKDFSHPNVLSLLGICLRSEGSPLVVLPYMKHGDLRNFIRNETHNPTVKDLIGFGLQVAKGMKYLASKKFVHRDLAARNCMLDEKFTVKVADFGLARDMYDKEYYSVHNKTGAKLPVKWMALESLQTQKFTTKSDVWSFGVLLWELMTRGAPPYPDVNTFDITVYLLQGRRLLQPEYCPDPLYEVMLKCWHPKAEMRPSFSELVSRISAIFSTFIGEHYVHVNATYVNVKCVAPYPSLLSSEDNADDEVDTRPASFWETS

Row | SMILES | IC50 [1] [nM] | IC50 [2] [nM]
1 | C=CCN1CCNC(=O)c2cccc(Nc3ncc(Cl)c(Nc4ccccc4C(=O)NC)n3)c21 [Example 545, 2-[2-(1-Allyl-5-oxo-2,3,4,5-tetrahydro-1H-benzo[e][1,4]diazepin-9-ylamino)-5-chloro-pyrimidin-4-ylamino]-N-methyl-benzamide] | > 10000 | 1000 to 10000
2 | CCN1C(=O)CCCc2c1ccc(Nc1ncc(Cl)c(NC3C4C=CC(C4)C3C(=O)N(C)C)n1)c2OC (stereo not drawn) [Example 602, (2-exo-3-exo)-3-[5-Chloro-2-(1-ethyl-6-methoxy-2-oxo-2,3,4,5-tetrahydro-1H-benzo[b]azepin-7-ylamino)-pyrimidin-4-ylamino]-bicyclo[2.2.1]hept-5-ene-2-carboxylic acid dimethylamide] | > 10000 | 100 to 1000
3 | CCN1C(=O)CCCc2c1ccc(Nc1ncc(Cl)c(NC3C4C=CC(C4)C3C(=O)NC(C)C)n1)c2OC (stereo not drawn) [Example 603, (2-exo-3-exo)-3-[5-Chloro-2-(1-ethyl-6-methoxy-2-oxo-2,3,4,5-tetrahydro-1H-benzo[b]azepin-7-ylamino)-pyrimidin-4-ylamino]-bicyclo[2.2.1]hept-5-ene-2-carboxylic acid isopropylamide] | > 10000 | 100 to 1000
4 | CNC(=O)C1C2C=CC(C2)C1Nc1nc(Nc2cc3c(cc2OC)CCN(CCOC)CC3)ncc1Cl (stereo not drawn) [Example 604, (2-exo-3-exo)-3-{5-Chloro-2-[8-methoxy-3-(2-methoxy-ethyl)-2,3,4,5-tetrahydro-1H-benzo[d]azepin-7-ylamino]-pyrimidin-4-ylamino}-bicyclo[2.2.1]hept-5-ene-2-carboxylic acid methylamide] | > 10000 | < 100
5 | COCCN1CCc2cc(Nc3ncc(Cl)c(NC4C5C=CC(C5)C4C(=O)NC(C)C)n3)c(OC)cc2CC1 (stereo not drawn) [Example 605, (2-exo-3-exo)-3-{5-Chloro-2-[8-methoxy-3-(2-methoxy-ethyl)-2,3,4,5-tetrahydro-1H-benzo[d]azepin-7-ylamino]-pyrimidin-4-ylamino}-bicyclo[2.2.1]hept-5-ene-2-carboxylic acid isopropylamide] | > 10000 | < 100
6 | COCCN1CCc2cc(Nc3ncc(Cl)c(NC4C5C=CC(C5)C4C(=O)N(C)C)n3)c(OC)cc2CC1 (stereo not drawn) [Example 606, (2-exo-3-exo)-3-{5-Chloro-2-[8-methoxy-3-(2-methoxy-ethyl)-2,3,4,5-tetrahydro-1H-benzo[d]azepin-7-ylamino]-pyrimidin-4-ylamino}-bicyclo[2.2.1]hept-5-ene-2-carboxylic acid dimethylamide] | > 10000 | < 100
7 | CCN1C(=O)CCCc2c1ccc(Nc1ncc(Cl)c(Nc3ccc(OC)cc3C(=O)NC)n1)c2OC [Example 607, 2-[5-Chloro-2-(1-ethyl-6-methoxy-2-oxo-2,3,4,5-tetrahydro-1H-benzo[b]azepin-7-ylamino)-pyrimidin-4-ylamino]-5-methoxy-N-methyl-benzamide] | 1000 to 10000 | < 100
8 | CCN1C(=O)CCCc2c1ccc(Nc1ncc(Cl)c(Nc3ccc(OC)cc3C(=O)OC(C)C)n1)c2OC [Example 608, 2-[5-Chloro-2-(1-ethyl-6-methoxy-2-oxo-2,3,4,5-tetrahydro-1H-benzo[b]azepin-7-ylamino)-pyrimidin-4-ylamino]-5-methoxy-benzoic acid isopropyl ester] | > 10000 | 1000 to 10000
9 | CNC(=O)c1cc(OC)ccc1Nc1nc(Nc2ccc3c(c2)C(C)(C)CCC(=O)N3)ncc1Cl [Example 609, 2-[5-Chloro-2-(5,5-dimethyl-2-oxo-2,3,4,5-tetrahydro-1H-benzo[b]azepin-7-ylamino)-pyrimidin-4-ylamino]-5-methoxy-N-methyl-benzamide] | 100 to 1000 | < 100
10 | COCCN1CCc2cc(Nc3ncc(Cl)c(NC4C5C=CC(C5)C4c4nc5ccccc5[nH]4)n3)c(OC)cc2CC1 (stereo not drawn) [Example 610, N*4*-[(2-exo-3-exo)-3-(1H-Benzoimidazol-2-yl)-bicyclo[2.2.1]hept-5-en-2-yl]-5-chloro-N*2*-[8-methoxy-3-(2-methoxy-ethyl)-2,3,4,5-tetrahydro-1H-benzo[d]azepin-7-yl]-pyrimidine-2,4-diamine] | > 10000 | 1000 to 10000
11 | COc1ccc(Nc2nc(Nc3ccc4c(c3)C(C)(C)CCC(=O)N4)ncc2Cl)c(-n2cccn2)c1 [Example 611, 7-[5-Chloro-4-(4-methoxy-2-pyrazol-1-yl-phenylamino)-pyrimidin-2-ylamino]-5,5-dimethyl-1,3,4,5-tetrahydro-benzo[b]azepin-2-one] | 1000 to 10000 | < 100
12 | COCCN1CCc2cc(Nc3ncc(Cl)c(Nc4ccc(OC)cc4-n4cccn4)n3)c(OC)cc2CC1 [Example 612, 5-Chloro-N*2*-[8-methoxy-3-(2-methoxy-ethyl)-2,3,4,5-tetrahydro-1H-benzo[d]azepin-7-yl]-N*4*-(4-methoxy-2-pyrazol-1-yl-phenyl)-pyrimidine-2,4-diamine] | > 10000 | < 100
13 | CCN1C(=O)CCCc2c1ccc(Nc1ncc(Cl)c(Nc3ccc(OC)cc3-n3cccn3)n1)c2OC [Example 613, 7-[5-Chloro-4-(4-methoxy-2-pyrazol-1-yl-phenylamino)-pyrimidin-2-ylamino]-1-ethyl-6-methoxy-1,3,4,5-tetrahydro-benzo[b]azepin-2-one] | > 10000 | < 100
14 | CCN1C(=O)CCCc2cc(Nc3ncc(Cl)c(Nc4ccc(OC)cc4-n4cccn4)n3)c(OC)cc21 [Example 614, 7-[5-Chloro-4-(4-methoxy-2-pyrazol-1-yl-phenylamino)-pyrimidin-2-ylamino]-1-ethyl-8-methoxy-1,3,4,5-tetrahydro-benzo[b]azepin-2-one] | > 10000 | < 100
15 | COc1ccc(Nc2nc(Nc3cc4c(cc3OC)CCN(CC(=O)N(C)C)CC4)ncc2Cl)c(-n2cccn2)c1 [Example 616, 2-{7-[5-Chloro-4-(4-methoxy-2-pyrazol-1-yl-phenylamino)-pyrimidin-2-ylamino]-8-methoxy-1,2,4,5-tetrahydro-benzo[d]azepin-3-yl}-N,N-dimethyl-acetamide] | > 10000 | < 100
16 | CNC(=O)c1cc(OC)ccc1Nc1nc(Nc2cc3c(cc2OC)CCN(CC(=O)N(C)C)CC3)ncc1Cl [Example 617, 2-[5-Chloro-2-(3-dimethylcarbamoylmethyl-8-methoxy-2,3,4,5-tetrahydro-1H-benzo[d]azepin-7-ylamino)-pyrimidin-4-ylamino]-5-methoxy-N-methyl-benzamide] | 1000 to 10000 | < 100
17 | CNC(=O)c1cc(OC)ccc1Nc1nc(Nc2ccc3c(c2)CCN(CCOC)CC3)ncc1Cl [Example 618, 2-{5-Chloro-2-[3-(2-methoxy-ethyl)-2,3,4,5-tetrahydro-1H-benzo[d]azepin-7-ylamino]-pyrimidin-4-ylamino}-5-methoxy-N-methyl-benzamide] | < 100 | < 100
18 | COc1ccc(Nc2nc(Nc3ccc4c(c3)C(C)(C)CCC(=O)N4C)ncc2Cl)c(-n2cccn2)c1 [Example 619, 7-[5-Chloro-4-(4-methoxy-2-pyrazol-1-yl-phenylamino)-pyrimidin-2-ylamino]-1,5,5-trimethyl-1,3,4,5-tetrahydro-benzo[b]azepin-2-one] | 100 to 1000 | < 100
19 | CNC(=O)c1cc(OC)ccc1Nc1nc(Nc2cc3c(cc2OC)CCN(CCOC)CC3)ncc1Cl [Example 621, 2-{5-Chloro-2-[8-methoxy-3-(2-methoxy-ethyl)-2,3,4,5-tetrahydro-1H-benzo[d]azepin-7-ylamino]-pyrimidin-4-ylamino}-5-methoxy-N-methyl-benzamide] | 1000 to 10000 | < 100
20 | COc1ccc(Nc2nc(Nc3ccc4c(c3)CCC(N3CCOCC3)CC4)ncc2Cl)c(-n2cccn2)c1 (stereo not drawn) [Example 622, 5-Chloro-N*4*-(4-methoxy-2-pyrazol-1-yl-phenyl)-N*2*-(7-morpholin-4-yl-6,7,8,9-tetrahydro-5H-benzocyclohepten-2-yl)-pyrimidine-2,4-diamine] | 1000 to 10000 | < 100
21 | COc1ccc(Nc2nc(Nc3ccc4c(c3)CCC(O)CC4)ncc2Cl)c(-n2cccn2)c1 (stereo not drawn) [Example 623, 2-[5-Chloro-4-(4-methoxy-2-pyrazol-1-yl-phenylamino)-pyrimidin-2-ylamino]-6,7,8,9-tetrahydro-5H-benzocyclohepten-7-ol] | 1000 to 10000 | < 100
22 | CNC(=O)C1C2C=CC(C2)C1Nc1nc(Nc2ccc3c(c2)CCC(N2CCOCC2)CC3)ncc1Cl (stereo not drawn) [Example 624, (2-exo-3-exo)-3-[5-Chloro-2-(7-morpholin-4-yl-6,7,8,9-tetrahydro-5H-benzocyclohepten-2-ylamino)-pyrimidin-4-ylamino]-bicyclo[2.2.1]hept-5-ene-2-carboxylic acid methylamide] | 100 to 1000 | < 100
23 | CNC(=O)C1C2C=CC(C2)C1Nc1nc(Nc2ccc3c(c2)CCC(O)CC3)ncc1Cl (stereo not drawn) [Example 625, (2-exo-3-exo)-3-[5-Chloro-2-(7-hydroxy-6,7,8,9-tetrahydro-5H-benzocyclohepten-2-ylamino)-pyrimidin-4-ylamino]-bicyclo[2.2.1]hept-5-ene-2-carboxylic acid methylamide] | 100 to 1000 | < 100
24 | COc1cc2c(cc1Nc1ncc(Cl)c(Nc3ccc(N4CCOCC4)cc3-n3cccn3)n1)CCN(CC(=O)N(C)C)CC2 [Example 626, 2-{7-[5-Chloro-4-(4-morpholin-4-yl-2-pyrazol-1-yl-phenylamino)-pyrimidin-2-ylamino]-8-methoxy-1,2,4,5-tetrahydro-benzo[d]azepin-3-yl}-N,N-dimethyl-acetamide] | > 10000 | < 100
